Data set [1] relates to human skin. The conditions noted are these: 107 subjects. An excerpt:
Subjects fulfilled specific inclusion criteria including not being pregnant or breastfeeding, being over 18 years old, having healthy skin, and not having used any dermatological or cosmetic preparation on the test area within 5 days before the beginning of the study.
Briefly, the tested hydrogels were applied under occlusion on the outer aspect of the upper arm for a defined time. The applications were repeated 9 times over a period of 3 consecutive weeks, a duration necessary for the possible induction of an immune response. The irritancy potential was evaluated and compared to the irritancy potential of the standard, SLS. After a two-week rest period with no treatment, the tested hydrogels were applied under occlusion to the induction site and to a virgin site on the volar side of the underarm for a defined period of time to trigger a possible immune response.
The final pH of the hydrogels was adjusted to about 5.5.
Possible skin reactions to the products were scored according to the scale reproduced in Table 5 above.
In summary, the test product is considered to have a low sensitization potential if none of the subjects reported a grade 2 or higher dermal response on days 38 to 40 and no more than two subjects reported a grade 1 dermal response on days 38 to 40. A moderate sensitization potential is assigned if a maximum of 2 subjects reported a grade 2 or higher dermal response on days 38 to 40 and a maximum of 4 subjects reported a grade 1 response on days 38 to 40. A high sensitization potential is assigned if 3 or more subjects reported a grade 2 or higher dermal response on days 38 to 40 and 5 or more subjects reported a grade 1 response on days 38 to 40.
The cumulative irritancy score represents the sum of the irritancy scores assigned on days 3, 5, 8, 10, 12, 15, 17, 19, and 22. […] An irritancy score was assigned to each induction and virgin site on days 36, 38, 39 and 40, and their respective scores were added up separately to produce the cumulative irritancy score presented in the fourth column of Table 10. The fifth and sixth columns indicate the number of subjects that experienced a grade 2 or greater response on each of days 38, 39 and 40, and the number of subjects that experienced a grade 1 response on each of days 38, 39, and 40.

Data set [2] has as its system human skin. The conditions noted are these: both, in vivo.
Data set [3] in a line: Uptake rates of active agents into hydrogel samples. The note with it: for time to reach the same concentration in the hydrogel as the uptake solution: 1 mm hydrogel samples, methylene blue 1 ppm, p-nitrophenol 0.4 wt. %. It counts as physicochemical. The method, then: Uptake solutions of methylene blue (1 ppm) and p-nitrophenol (0.4 wt. %) were prepared. […] The hydrogels were then carefully blotted of excess solution and were each transferred into a second beaker containing 30 ml of a 10 mM phosphate buffer solution with a pH of 6 to equilibrate.
The hydrogels were continuously agitated to ensure that the equilibrium state was reached. The uptake of p-nitrophenol and methylene blue was assumed to correspond to the amount that was released into the washing buffer solution. […] Methylene blue was similarly measured at 655 nm and the calibration curve was in the range of 0.0025 ppm to 3 ppm.

On to `CCCCCCCCCCCCOS(=O)(=O)[O-].[Na+]` [Positive Control, sodium lauryl sulphate], for which, in data set [1] (22-day induction phase), the “Cumulative Irritancy Score” value amounted to 21, the “Number of reacting subjects” value was found to be 11 and the “Type of Reactivity” value is “Minimal erythema”. Further, the “subjects with slight glazed appearance and/or marked glazing” value in data set [1] (induction phase) stood at 20. Moreover, in data set [2], the “C: Glazing with peeling & cracking, number of subjects” value is listed as 0; the “D: Glazing with fissures, number of subjects” value was determined as 0; the “E: Film of dried serious exudate covering all or part of the patch site, number of subjects” value was 0; the “F: Small petechial erosions and/or scabs, number of subjects” value was determined as 0. For the same compound, in data set [2], the Maximum single score was determined as 1, the Maximum sum stood at 3, the Minimum single score turned out to be 0 and the Minimum sum came to 0. Also, in data set [2], the “N (reacting subjects)” value is 19; the “Slight itch, number of subjects” value was 0; the “Sum of scores for dermal reactions” value worked out at 23.00.

Regarding `CN(C)c1ccc2nc3ccc(=[N+](C)C)cc-3sc2c1` [methylene blue], the “time to reach the same concentration in the hydrogel as the uptake solution” value in data set [3] is on record as “less than 1.50 minutes”. Further, in data set [3] (within an hour), the “concentration in hydrogel relative to the initial uptake solution” value is recorded as 6 times.

Turning to `O=[N+]([O-])c1ccc(O)cc1` [p-nitrophenol], in data set [3], the “time to reach the same concentration in the hydrogel as the uptake solution” value is “about 15 minutes”.

The record behind these values is patent publication US20050214376A1, “Hydrogel-containing medical articles and methods of using and making the same” (priority 2003, published 2005).
